Experimental data taken from ChEMBL document CHEMBL3627608, “Crystal structures of human RIP2 kinase catalytic domain complexed with ATP-competitive inhibitors: Foundations for understanding inhibitor selectivity” (Bioorg Med Chem, 2015).

Experiments:
[1] = biological target: Epithelial discoidin domain-containing receptor 1 (Homo sapiens) (UniProt Q08345); experiment: Inhibition of DDR1 (unknown origin) at 10 uM after 120 mins P33 radiolabeled kinase activity assay
[2] = biological target: T1, Serine/threonine-protein kinase Nek5 (Homo sapiens) (UniProt Q6P3R8); experiment: Inhibition of NEK5 (unknown origin) at 10 uM after 120 mins P33 radiolabeled kinase activity assay
T1 sequence (whole entry): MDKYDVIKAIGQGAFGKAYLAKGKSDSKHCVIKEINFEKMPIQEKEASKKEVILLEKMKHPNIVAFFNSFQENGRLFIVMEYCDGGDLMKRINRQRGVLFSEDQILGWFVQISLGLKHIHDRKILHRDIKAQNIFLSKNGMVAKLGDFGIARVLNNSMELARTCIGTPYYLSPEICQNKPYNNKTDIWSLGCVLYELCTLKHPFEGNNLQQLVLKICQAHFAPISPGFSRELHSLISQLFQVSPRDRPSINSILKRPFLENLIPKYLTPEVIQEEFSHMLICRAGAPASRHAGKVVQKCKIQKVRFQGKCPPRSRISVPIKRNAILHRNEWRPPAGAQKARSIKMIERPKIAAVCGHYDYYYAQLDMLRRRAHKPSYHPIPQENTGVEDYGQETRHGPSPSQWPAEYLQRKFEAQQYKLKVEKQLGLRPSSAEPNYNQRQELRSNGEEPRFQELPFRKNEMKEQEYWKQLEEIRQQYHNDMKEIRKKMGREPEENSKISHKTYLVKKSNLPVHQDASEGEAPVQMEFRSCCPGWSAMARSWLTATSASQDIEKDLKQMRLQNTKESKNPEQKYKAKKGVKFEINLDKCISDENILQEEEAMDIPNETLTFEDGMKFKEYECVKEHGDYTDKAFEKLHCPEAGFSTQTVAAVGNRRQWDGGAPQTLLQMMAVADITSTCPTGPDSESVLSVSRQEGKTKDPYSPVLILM

[3] = biological target: T2, Protein kinase C epsilon type (Homo sapiens) (UniProt Q02156); experiment: Inhibition of PKCepsilon (unknown origin) at 10 uM after 120 mins P33 radiolabeled kinase activity assay
T2 sequence (whole entry): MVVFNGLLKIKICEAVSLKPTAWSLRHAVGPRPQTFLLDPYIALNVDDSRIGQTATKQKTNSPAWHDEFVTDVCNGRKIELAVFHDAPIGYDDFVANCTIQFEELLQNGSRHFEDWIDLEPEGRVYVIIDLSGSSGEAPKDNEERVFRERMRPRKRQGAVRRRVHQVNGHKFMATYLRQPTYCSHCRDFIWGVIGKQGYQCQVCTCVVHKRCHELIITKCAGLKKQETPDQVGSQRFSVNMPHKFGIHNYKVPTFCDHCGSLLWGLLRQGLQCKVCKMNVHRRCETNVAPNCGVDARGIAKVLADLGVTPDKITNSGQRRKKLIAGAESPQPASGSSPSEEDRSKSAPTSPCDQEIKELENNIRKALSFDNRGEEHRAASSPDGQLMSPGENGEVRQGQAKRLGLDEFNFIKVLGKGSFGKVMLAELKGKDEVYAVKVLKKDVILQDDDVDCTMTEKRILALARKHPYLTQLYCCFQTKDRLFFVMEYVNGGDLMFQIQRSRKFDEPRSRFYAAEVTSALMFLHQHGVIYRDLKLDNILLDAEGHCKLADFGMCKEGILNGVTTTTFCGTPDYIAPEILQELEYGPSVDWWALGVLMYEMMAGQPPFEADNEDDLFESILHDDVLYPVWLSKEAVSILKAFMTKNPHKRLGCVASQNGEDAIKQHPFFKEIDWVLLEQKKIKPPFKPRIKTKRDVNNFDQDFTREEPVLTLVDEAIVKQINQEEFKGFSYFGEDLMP

[4] = biological target: Maternal embryonic leucine zipper kinase (Homo sapiens) (UniProt Q14680); experiment: Inhibition of MELK (unknown origin) at 10 uM after 120 mins P33 radiolabeled kinase activity assay
[5] = biological target: T3, Tyrosine-protein kinase receptor TYRO3 (Homo sapiens) (UniProt Q06418); experiment: Inhibition of TYRO3 (unknown origin) at 10 uM after 120 mins P33 radiolabeled kinase activity assay
T3 sequence (whole entry): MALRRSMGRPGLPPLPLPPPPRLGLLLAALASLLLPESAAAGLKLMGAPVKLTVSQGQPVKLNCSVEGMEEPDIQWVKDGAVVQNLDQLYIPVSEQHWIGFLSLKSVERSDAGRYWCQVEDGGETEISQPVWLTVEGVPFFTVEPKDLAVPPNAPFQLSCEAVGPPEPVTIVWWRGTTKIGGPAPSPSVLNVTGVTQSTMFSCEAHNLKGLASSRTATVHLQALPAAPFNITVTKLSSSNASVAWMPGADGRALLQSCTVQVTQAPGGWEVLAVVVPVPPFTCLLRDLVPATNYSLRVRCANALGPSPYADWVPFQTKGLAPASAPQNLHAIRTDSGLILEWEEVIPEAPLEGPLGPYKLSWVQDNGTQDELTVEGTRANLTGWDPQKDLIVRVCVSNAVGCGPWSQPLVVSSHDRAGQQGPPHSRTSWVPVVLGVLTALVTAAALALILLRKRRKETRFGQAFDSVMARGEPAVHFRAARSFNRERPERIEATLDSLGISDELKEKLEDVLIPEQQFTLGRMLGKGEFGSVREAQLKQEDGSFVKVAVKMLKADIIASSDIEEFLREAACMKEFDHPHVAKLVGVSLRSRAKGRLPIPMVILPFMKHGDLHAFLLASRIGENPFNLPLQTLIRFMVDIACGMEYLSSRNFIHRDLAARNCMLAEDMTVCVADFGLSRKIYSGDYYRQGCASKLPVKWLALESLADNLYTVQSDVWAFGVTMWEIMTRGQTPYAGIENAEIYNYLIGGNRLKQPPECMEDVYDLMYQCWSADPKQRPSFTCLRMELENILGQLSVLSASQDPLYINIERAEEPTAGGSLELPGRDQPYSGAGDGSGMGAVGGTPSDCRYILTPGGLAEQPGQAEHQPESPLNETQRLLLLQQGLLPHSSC

[6] = biological target: CDK9/cyclin T1 (Homo sapiens) (UniProt O60563+P50750); experiment: Inhibition of CDK9/cyclin T1 (unknown origin) at 10 uM after 120 mins P33 radiolabeled kinase activity assay; type: protein-complex assay

Sequence of Epithelial discoidin domain-containing receptor 1 (Homo sapiens) (Q08345 whole entry, the tested form may be a part): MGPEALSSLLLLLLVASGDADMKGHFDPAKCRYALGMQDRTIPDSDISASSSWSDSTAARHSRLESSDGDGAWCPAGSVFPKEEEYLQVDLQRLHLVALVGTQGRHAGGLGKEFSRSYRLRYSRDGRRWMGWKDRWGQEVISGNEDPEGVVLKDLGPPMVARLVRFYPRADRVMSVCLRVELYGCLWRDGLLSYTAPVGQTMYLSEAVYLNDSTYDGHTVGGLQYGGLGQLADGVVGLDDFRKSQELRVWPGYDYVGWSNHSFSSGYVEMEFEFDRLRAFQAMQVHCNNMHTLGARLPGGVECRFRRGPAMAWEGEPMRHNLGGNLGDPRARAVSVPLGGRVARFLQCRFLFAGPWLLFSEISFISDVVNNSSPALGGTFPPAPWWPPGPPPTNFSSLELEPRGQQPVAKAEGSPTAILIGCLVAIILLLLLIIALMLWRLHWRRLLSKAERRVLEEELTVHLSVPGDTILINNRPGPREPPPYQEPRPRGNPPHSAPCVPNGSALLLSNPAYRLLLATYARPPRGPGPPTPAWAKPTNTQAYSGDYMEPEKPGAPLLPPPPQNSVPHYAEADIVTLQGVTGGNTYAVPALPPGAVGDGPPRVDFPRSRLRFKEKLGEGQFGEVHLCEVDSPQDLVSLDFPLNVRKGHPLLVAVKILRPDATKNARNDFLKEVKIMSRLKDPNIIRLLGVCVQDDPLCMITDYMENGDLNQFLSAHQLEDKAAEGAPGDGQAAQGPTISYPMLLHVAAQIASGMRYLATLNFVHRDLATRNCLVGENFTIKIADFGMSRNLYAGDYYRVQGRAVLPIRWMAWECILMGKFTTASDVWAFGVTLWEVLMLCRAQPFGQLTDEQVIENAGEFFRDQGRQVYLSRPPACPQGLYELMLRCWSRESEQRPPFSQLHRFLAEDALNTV
Sequence of Maternal embryonic leucine zipper kinase (Homo sapiens) (Q14680 whole entry, looked up): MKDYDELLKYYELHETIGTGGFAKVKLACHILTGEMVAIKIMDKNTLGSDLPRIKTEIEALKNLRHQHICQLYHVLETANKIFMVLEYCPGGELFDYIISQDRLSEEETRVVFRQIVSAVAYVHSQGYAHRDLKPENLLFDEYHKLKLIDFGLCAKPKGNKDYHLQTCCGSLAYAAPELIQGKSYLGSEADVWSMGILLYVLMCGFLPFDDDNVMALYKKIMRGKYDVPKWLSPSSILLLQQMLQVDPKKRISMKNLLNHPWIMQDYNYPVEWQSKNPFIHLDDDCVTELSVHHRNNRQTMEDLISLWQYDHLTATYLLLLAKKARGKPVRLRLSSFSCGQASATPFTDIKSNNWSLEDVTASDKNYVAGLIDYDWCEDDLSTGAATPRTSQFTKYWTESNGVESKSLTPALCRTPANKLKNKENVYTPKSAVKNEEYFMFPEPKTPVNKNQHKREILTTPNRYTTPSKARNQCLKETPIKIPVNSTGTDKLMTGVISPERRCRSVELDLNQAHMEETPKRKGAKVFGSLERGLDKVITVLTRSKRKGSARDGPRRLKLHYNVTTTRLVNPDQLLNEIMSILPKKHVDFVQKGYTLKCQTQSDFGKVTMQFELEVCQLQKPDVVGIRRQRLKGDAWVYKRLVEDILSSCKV

| inhibition [1] [%] | inhibition [2] [%] | inhibition [3] [%] | inhibition [4] [%] | inhibition [5] [%] | inhibition [6] [%] | SMILES |
| --- | --- | --- | --- | --- | --- | --- |
| 98.6 | 50.5 | -0.59 | 69.3 | 79.5 | 25.4 | CS(=O)(=O)c1cccc(Nc2nccc(-c3sc(N4CCOCC4)nc3-c3cccc(NS(=O)(=O)c4c(F)cccc4F)c3)n2)c1 |
| 66 | 9.53 | 1.13 | 8.47 | 12.8 | 5.79 | COCCNC(=O)c1ccc2c(c1)nc(-c1cnc(-c3ccc(Cl)cc3)[nH]1)n2CCOC |
| 98.1 | 27.3 | 0.69 | -0.03 | 60.7 | 78.7 | CC(C)(C)c1cc(NC(=O)Nc2ccc(Oc3ccncc3)cc2)no1 |
